Assay results published in US4929601A, “Tripeptides useful as immunostimulants as well as in the prevention of metastases” (Ellem Industria Farmaceutica, S.p.A., priority 1987, dated 1990).

Key:
[1] = tested on: PHA-stimulated human T lymphocytes; assay: RNA synthesis in PHA-stimulated human T lymphocytes in vitro (3H-uridine); assay type: cell-based; settings: for RNA synthesis, 3H-uridine c.p.m. (mean): control 3835
Experimental: Human T lymphocytes, incubated in vitro for 24 hours in presence of 0.5% phytohemagglutinin (PHA) and different concentrations of the tripeptides under examination, have been analyzed for RNA synthesis (cell activation) by means of 3H-uridine labelling.

[2] = tested on: PHA-stimulated human T lymphocytes; assay: DNA synthesis in PHA-stimulated human T lymphocytes in vitro (3H-thymidine); assay type: cell-based; settings: for DNA synthesis, 3H-thymidine c.p.m. (mean): control 22642
Experimental: Human T lymphocytes, incubated in vitro for 72 hours in presence of 0.5% PHA and different concentrations of the tripeptides under examination, have been analyzed for DNA synthesis (cell proliferation) by means of 3H-thymidine labelling.

N=C(N)NCCC[C@H](N)C(=O)NCC(=O)N[C@H](CC(=O)O)C(=O)O [ARG--GLY--D--ASP, L-Arginyl-glycyl-D-Aspartic acid]
PHA-induced human T lymphocyte activation (RNA synthesis) ([1]; 24 hours, 0.5% PHA): able to increase | RNA synthesis Δ % ([1]; peptide 0.0001 mcg/ml): -8% | RNA synthesis, 3H-uridine c.p.m. (mean) ([1]; peptide 0.0001 mcg/ml, 24 hours, 0.5% PHA): 3517 c.p.m. | RNA synthesis Δ % ([1]; peptide 0.001 mcg/ml): +8% | RNA synthesis, 3H-uridine c.p.m. (mean) ([1]; peptide 0.001 mcg/ml, 24 hours, 0.5% PHA): 4129 c.p.m. | RNA synthesis Δ % ([1]; peptide 0.01 mcg/ml): +12% | RNA synthesis, 3H-uridine c.p.m. (mean) ([1]; peptide 0.01 mcg/ml, 24 hours, 0.5% PHA): 4283 c.p.m. | RNA synthesis Δ % ([1]; peptide 0.1 mcg/ml): +25% | RNA synthesis, 3H-uridine c.p.m. (mean) ([1]; peptide 0.1 mcg/ml, 24 hours, 0.5% PHA): 4777 c.p.m. | RNA synthesis Δ % ([1]; peptide 1 mcg/ml): +22% | RNA synthesis, 3H-uridine c.p.m. (mean) ([1]; peptide 1 mcg/ml, 24 hours, 0.5% PHA): 4682 c.p.m. | RNA synthesis Δ % ([1]; peptide 10 mcg/ml): +13% | RNA synthesis, 3H-uridine c.p.m. (mean) ([1]; peptide 10 mcg/ml, 24 hours, 0.5% PHA): 4346 c.p.m. | PHA-induced human T lymphocyte proliferation (DNA synthesis) ([2]; 72 hours, 0.5% PHA): able to increase | DNA synthesis Δ % ([2]; peptide 0.0001 mcg/ml): -3% | DNA synthesis, 3H-thymidine c.p.m. (mean) ([2]; peptide 0.0001 mcg/ml, 72 hours, 0.5% PHA): 21898 c.p.m. | DNA synthesis Δ % ([2]; peptide 0.001 mcg/ml): +2% | DNA synthesis, 3H-thymidine c.p.m. (mean) ([2]; peptide 0.001 mcg/ml, 72 hours, 0.5% PHA): 23029 c.p.m. | DNA synthesis Δ % ([2]; peptide 0.01 mcg/ml): +8% | DNA synthesis, 3H-thymidine c.p.m. (mean) ([2]; peptide 0.01 mcg/ml, 72 hours, 0.5% PHA): 24551 c.p.m. | DNA synthesis Δ % ([2]; peptide 0.1 mcg/ml): +15% | DNA synthesis, 3H-thymidine c.p.m. (mean) ([2]; peptide 0.1 mcg/ml, 72 hours, 0.5% PHA): 26090 c.p.m. | DNA synthesis Δ % ([2]; peptide 1 mcg/ml): +16% | DNA synthesis, 3H-thymidine c.p.m. (mean) ([2]; peptide 1 mcg/ml, 72 hours, 0.5% PHA): 26170 c.p.m. | DNA synthesis Δ % ([2]; peptide 10 mcg/ml): +9% | DNA synthesis, 3H-thymidine c.p.m. (mean) ([2]; peptide 10 mcg/ml, 72 hours, 0.5% PHA): 24570 c.p.m.
